From US20180310552A1, “Composition comprising a safener, a fungicide and metalaxyl” (priority 2015, published 2018) come the findings set out here.

The test system of test [1] is Fusarium culmorum. As to the kind of experiment: Fusarium culmorum (wheat)/seed treatment, greenhouse, 7 days at 20° C. The class given is in vivo. As to conditions: seed treatment. An excerpt:
(§1) According to another aspect of the present invention, in the composition according to the invention, the compound ratio A/B, A/C or A/B/C may be advantageously chosen so as to produce a synergistic effect. A synergistic effect of fungicides is always present when the fungicidal activity of the active compound combinations exceeds the total of the activities of the active compounds when applied individually. The expected activity for a given combination of two or three active compounds can be calculated as follows (cf. Colby, S. R., “Calculating Synergistic and Antagonistic Responses of Herbicide Combinations”, Weeds 1967, 15, 20-22).
(§2) wherein • X denotes the efficacy when using active compound A at an application rate of m ppm (or g/ha), • Y denotes the efficacy when using active compound B (or C) at an application rate of n ppm (or g/ha), • Z denotes the efficacy when using active compound C at an application rate of r ppm (or g/ha), • E1 denotes the efficacy when using active compounds A and B at application rates of m and n ppm (or g/ha), and • E2 denotes the efficacy when using active compounds A and B and C at application rates of m and n and r ppm (or g/ha),
(§3) Here, the efficacy is determined in %. 0% means an efficacy which corresponds to that of the control, whereas an efficacy of 100% means that no infection is observed.
(§4) If the actual fungicidal action exceeds the calculated value, the action of the combination is superadditive, i.e. a synergistic effect is present. In this case, the actually observed efficacy must exceed the value calculated using the above formula for the expected efficacy (E1 or E2).
(§5) The test is performed under greenhouse conditions.
Active compounds solved in N-methyl-2-pyrrolidon, or combinations thereof were diluted with water to the desired dosages. Wheat seeds were treated with these preparations and sown in 7×7 cm pots filled with 1:1 mix of steamed field soil and sand, mixed with a wheat grain culture of Fusarium culmorum.
Pots were incubated in the greenhouse for 7 days at 20° C. […]

Test [2] relates to Fusarium culmorum. The test can be described thus: Fusarium culmorum (wheat)/seed treatment, greenhouse, 7 days at 15° C. (Example 5). The class given is in vivo. The following applies: seed treatment.
Description: as §1, §2, §3, §4, §5
Commercially available disease control agents, active compounds solved in N-methyl-2-pyrrolidon, or combinations thereof were diluted with water to the desired dosages. Wheat seeds were treated with these preparations and sown in 6*6 cm pots containing 4 cm of a 1:1 mix of steamed field soil and sand, mixed with a wheat grain culture of Fusarium culmorum.
Pots were incubated in the greenhouse for 7 days at 15° C.
Assessment consisted of counting of emerged seedlings and diseased plants. 0% means an efficacy which corresponds to that of the untreated control (infection rate was 73%), while an efficacy of 100% means that all seedlings have emerged and are healthy.

As to `COCC(=O)N(c1c(C)cccc1C)C(C)C(=O)OC` (racemic) [Metalaxyl, methylN-(2,6-dimethylphenyl)-N-(methoxyacetyl)-DL-alaninate], the values for the Efficacy in % in test [1] (6 g a.i./dt) and in test [2] (2 g a.i./kg seed) were 0% and 18%, respectively.
As for `CCOC(=O)C1=NN(c2ccc(Cl)cc2Cl)C(C)(C(=O)OCC)C1` (racemic) [Mefenpyr-diethyl, diethyl (RS)-1-(2,4-dichlorophenyl)-5-methyl-2-pyrazoline-3,5-dicarboxylate], the figures for the Efficacy in % in test [1] (60 g a.i./dt), in test [2] (25 g a.i./kg seed) and in test [2] (50 g a.i./kg seed) were 9%, 9% and 0%, respectively.
For `OC(Cc1ccccc1Cl)(Cn1[nH]cnc1=S)C1(Cl)CC1` (stereo not shown) [Prothioconazole, 2-[2-(1-chlorocyclopropyl)-3-(2-chlorophenyl)-2-hydroxypropyl]-1,2-dihydro-3H-1,2,4-triazole-3-thione], the results for the Efficacy in % in test [1] (16 g a.i./dt) and in test [2] (15 g a.i./kg seed) were 45% and 64%, respectively.
